In patent US20130123358A1, “Metabolic Benefits to Butyrate as a Chronic Diet Supplement” (priority 2009, published 2013):

Assays:
[1] = tested on: HDAC; experiment: Histone Deacetylase Assay Kit, inhibition by butyrate isoforms; settings: Histone Deacetylase Assay Kit (Upstate), FIG. 8
Source text: Several isoforms of butyrate were purchased (Sigma Aldrich Chemicals, St. Louis, Mo.) and tested for inhibitory activity of HDAC, using a Histone Deacetylase Assay Kit (Upstate Biotechnology, Lake Placid, N.Y.).

[2] = tested on: HDAC; experiment: Histone deacetylase assay on muscle nuclear extracts of treated mice; type: in vivo, mouse; settings: TSA-treated mice on HFD, positive control
Procedure: Histone deacetylase assay were conducted according to the instruction from the manufacturer (#17-320, Upstate). Briefly, 10 ug of muscle nuclear extract (as an enzyme) was incubated with [3H]-acetyl CoA (#TRK688, Amersham) radio labeled histone H4 peptide (25,000 CPM, as a substrate) at 37° C. for 12 hours by shaking Released [3H]-acetate was measured using a scintillation counter. The nuclear extract was prepared according to a protocol described elsewhere (17). The muscle tissues were collected and snap-frozen in liquid nitrogen within 2 min of cervical dislocation of mice. Tissue samples were stored at −80° C. until further processing. The muscle sample of 200˜300 mg was cut into small pieces on dry ice and homogenized in 1 ml of lysate buffer. After centrifugation at 10,000 rpm for 1 minute at 4° C., the nucleus was pelleted and collected. After being washed, the nucleus pellet was treated with extraction buffer. The supernatant was collected for nuclear protein after centrifugation at 14,000 rpm for 5 minutes at 4° C.
Without wishing to be bound by this theory, one activity of butyrate could be related to inhibition of HDAC. Sodium butyrate inhibits the class I and class II histone deacetylases (HDACs). To test this possibility, HDAC activity was examined in the skeletal muscle of mice at 16 weeks on HFD (FIG. 7G). The assay was conducted with the nuclear extracts of muscle samples. […]

[3] = tested on: C57BL/6J mice on high fat diet; experiment: TSA in HFD-fed mice (body weight, ITT, insulin signaling, muscle fiber); type: in vivo, mouse; settings: TSA 0.6 ug/kg/day i.p.
Procedure: Sodium butyrate was administrated through dietary supplementation. Sodium butyrate (#303410, Sigma) was incorporated into the HFD evenly through blending the diet and sodium butyrate together at 400 rpm in a food processor. Sodium butyrate (50 g) was used in 1 kg diet to reach a dose of 5% w/w. The sodium butyrate containing diet was pelleted and stored in a −20° C. freezer. Trichostatin A (TSA) (T-1052, A.G. Scientific Inc. San Diego, Calif.) was dissolved in DMSO, and diluted in 0.9% saline at 2:98 ratio. The TSA solution (200 ul) was administrated by intra-peritoneal (i.p.) injection to reach a dose of […]. The control mice were administrated with the same volume of vehicle. 50 ml of tributyrin (#113026, Sigma) was incorporated into one kilogram of Chow diet in powder to reach a dose of 5% w/w in mice.
Trichostatin A (TSA) is a well-established HDAC inhibitor that is frequently used in the study of HDACs. The data presented above indicate that the metabolic activity of butyrate may be in part related to inhibition of HDACs. TSA activity was examined in the same model of murine obesity. TSA was administrated through daily i.p. injection during HFD feeding to C57BL/6J mice. The control mice were injected with an identical volume of PBS.
The mice at 5 weeks in age were fed HFD to induce obesity, and TSA was administrated at the dose of 0.6 ug/kg/day. The effects of TSA treatment were tested after 12-13 weeks. […] FIG. 11C indicates the insulin signaling in the gastrocnemius muscle. The muscle was isolated after insulin (0.75 U/kg) injection for 30 minutes and used to prepare whole cell lysate for immunoblot. IRS-1 and Akt were examined for tyrosine (Y632) and serine (S473) phosphorylation.
In addition, the vastus laterais muscle was isolated from the mice at 13 weeks on HFD, and used to make serial cryostat sections of muscle. The muscle slides made from vastus lateralis, gastrocnemius (gastr.) and soleus muscle were stained with antibody against the type I myosin heavy chain in the oxidative fiber. The photograph was taken at 20× magnification. The whole cell lysate was prepared from gastrocnemius muscle and analyzed in an immunoblot. PGC-1α, type I myosin heavy chain (Myosin) and myoglobin were blotted with specific antibodies, and the results shown in FIG. 11D. The results in FIGS. 11A-11D are the mean±SE (n=8 in each group). *P<0.05 (vs. control).

[4] = tested on: C57BL/6J mice on chow diet; experiment: Amyl butyrate in mice on chow diet for 4 months; type: in vivo, mouse; settings: amyl butyrate 5 g/kg BW/day in chow diet
Procedure: Amyl butyrate was administrated at 5 g/kg BW/day in C57BL/6J mice for 4 months. The amyl butyrate was added to the chow diet. […] FIGS. 14B and 14C show the body fat and muscle content measured by NMR as described above. […] In FIGS. 14A-14E, values are the mean±SE (n=7). *P<0.05, **P<0.001 compared to the control by Student's t test.

[5] = tested on: ob/ob mice; experiment: Tributyrin in ob/ob genetically obese mice; type: in vivo, mouse; settings: tributyrin 5 g/kg body weight/day in chow diet
Procedure: Male C57BL/6J (4 weeks in age) and ob/ob mice (4 weeks in age) were purchased from the Jackson Laboratory (Bar Harbor, Me.). After one week quarantine, the C57BL/6J mice were fed on the high fat diet (HFD, D12331, Research Diets, New Brunswick, N.J.), which contains 58% calories in fat. The ob/ob mice were fed on Chow diet (5001, Lab Diet) that contains 13.4% calories in fat. All of the mice were housed in the animal facility with a 12:12-h light-dark cycle and constant temperature (22-24° C.). The mice were free to access water and diet. All procedures were performed in accordance with National Institute of Health guidelines for the care and use of animals and approved by the Institute Animal Care and Use Committee at the Pennington Biomedical Research Center.
Sodium butyrate was administrated through dietary supplementation. Sodium butyrate (#303410, Sigma) was incorporated into the HFD evenly through blending the diet and sodium butyrate together at 400 rpm in a food processor. Sodium butyrate (50 g) was used in 1 kg diet to reach a dose of 5% w/w. The sodium butyrate containing diet was pelleted and stored in a −20° C. freezer. […]
To test effect of different forms of butyric acid, tributyrin was used in the ob/ob genetically obese mice model. […] After 2 weeks, body weight was measured and an insulin tolerance test was given. […]

## CC(C)C(O)C(=O)O (stereo not shown) [2-hydroxy-3-methylbutanoic acid]
[1]
  inhibitory activity of HDAC: inhibited HDAC

## CC(/C=C/C(=O)NO)=C\[C@@H](C)C(=O)c1ccc(N(C)C)cc1 [TSA, Trichostatin A]
[2]
  HDAC activity in skeletal muscle: decreased
[3]; 12 weeks on HFD
  body weight, less than control: 16%
[3]; 12 weeks on HFD, 4 hour fast
  insulin tolerance (ITT): significantly improved
[3]; 13 weeks on HFD
  expression of type I myosin heavy chain in gastrocnemius and soleus (histology): increased
  oxidative fiber ratio in skeletal muscle: increased
[3]; 30 minutes after insulin 0.75 U/kg
  insulin-induced signaling (IRS-1 Y632, Akt S473 phosphorylation) in gastrocnemius muscle: significantly improved
[3]; immunoblot
  PGC-1α protein in gastrocnemius muscle: all increased
  myoglobin protein in gastrocnemius muscle: all increased
  type I myosin heavy chain protein in gastrocnemius muscle: all increased

## CCCC(=O)OC(C)c1ccccc1 (stereo not shown) [a-methylbenzyl butyrate]
[1]
  inhibitory activity of HDAC: inhibited HDAC

## CCCCCOC(=O)CCC [amyl butyrate]
[4]
  body weight gain: prevented body weight gain
  insulin resistance (fasting glucose and ITT): protected the mice from insulin resistance
[4]; NMR
  body fat gain: prevented fat gain
  lean body mass: without affecting lean body mass
[1]
  inhibitory activity of HDAC: inhibited HDAC

## CCCC(=O)OCc1ccccc1 [benzyl butyrate]
[1]
  inhibitory activity of HDAC: inhibited HDAC

## CCCCOC(=O)CCC [butyl butyrate]
[1]
  inhibitory activity of HDAC: inhibited HDAC

## CCCCCCCOC(=O)CCC [heptyl butyrate]
[1]
  inhibitory activity of HDAC: inhibited HDAC

## CCCCCCOC(=O)CCC [hexyl butyrate]
[1]
  inhibitory activity of HDAC: inhibited HDAC

## CCCC(=O)OCC(C)C [isobutyl butyrate]
[1]
  inhibitory activity of HDAC: inhibited HDAC

## CCCC(=O)OC [methyl butyrate]
[1]
  inhibitory activity of HDAC: inhibited HDAC

## CCCC(=O)OCCc1ccccc1 [pennetyl butyrate]
[1]
  inhibitory activity of HDAC: inhibited HDAC

## CCCC(=O)OCC(COC(=O)CCC)OC(=O)CCC [tributyrin]
[5]; 2 weeks, vs control
  weight gain: significantly reduced
[5]; 4 hours fasting
  insulin sensitivity (ITT): preserved
